Consider 13 molecules from patent US20210380548A1, “Fused [1,2,4]Thiadiazine Derivatives Which Act as KAT Inhibitors of the MYST Family” (CTxT Pty Limited, priority 2017, published 2021).

One may read the IC50 as the concentration that gives 50% inhibition. A lower IC50 goes with higher potency.

The target in one assay is T1, MOZ-KAT6A (Homo sapiens, UniProt Q92794, A567V).
T1 construct: encoding amino acid residues 507 to 778 (Uniprot Q92794-1) of human KAT6A; made in house; host or cells: E. coli BL21 DE3
T1 sequence (Q92794 507-778 A567V limits assumed): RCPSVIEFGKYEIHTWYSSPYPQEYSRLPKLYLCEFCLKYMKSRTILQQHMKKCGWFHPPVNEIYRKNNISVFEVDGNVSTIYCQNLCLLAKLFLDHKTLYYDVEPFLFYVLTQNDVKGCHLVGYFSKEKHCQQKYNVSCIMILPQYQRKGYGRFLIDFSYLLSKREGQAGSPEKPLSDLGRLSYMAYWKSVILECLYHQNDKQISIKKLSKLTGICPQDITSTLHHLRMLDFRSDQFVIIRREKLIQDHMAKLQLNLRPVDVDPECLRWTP
Description: Revised Acetyltransferase Biochemical Assay, KAT6A. The following applies: Table 8 (MOZ-KAT6A), 1 μM Acetyl coenzyme A.

The next assay concerns the target T2, QKF-KAT6B (Homo sapiens, UniProt Q8WYB5).
T2 construct: purchased SignalChem K315-381BG
Description: Revised Acetyltransferase Biochemical Assay, KAT6B. To be noted: 8 nM KAT6B, 1 μM AcCoA, 100 nM histone H3.1, 90 min. The source says:
KAT6B was obtained from SignalChem, catalog ID: K315-381BG

Assay [1] concerns the target T3, HBO-KAT7 (Homo sapiens, UniProt O95251).
T3 construct: encoding amino acid residues 325 to 611 (Uniprot 095251-1) of human KAT7; made in house; host or cells: E. coli BL21 DE3 RIL
Description: Revised Acetyltransferase Biochemical Assay, KAT7. The following applies: Table 9 (HBO-KAT7), 1 μM Acetyl coenzyme A.

For a further assay, the target named is T4, TIP60-KAT5 (Homo sapiens, UniProt Q92993).
T4 construct: encoding amino acid residues 2 to 461 (Uniprot Q92993-2) of human KAT5 isoform; made in house; host or cells: E. coli BL21 DE3
T4 sequence (Q92993 2-461 isoform Q92993-2): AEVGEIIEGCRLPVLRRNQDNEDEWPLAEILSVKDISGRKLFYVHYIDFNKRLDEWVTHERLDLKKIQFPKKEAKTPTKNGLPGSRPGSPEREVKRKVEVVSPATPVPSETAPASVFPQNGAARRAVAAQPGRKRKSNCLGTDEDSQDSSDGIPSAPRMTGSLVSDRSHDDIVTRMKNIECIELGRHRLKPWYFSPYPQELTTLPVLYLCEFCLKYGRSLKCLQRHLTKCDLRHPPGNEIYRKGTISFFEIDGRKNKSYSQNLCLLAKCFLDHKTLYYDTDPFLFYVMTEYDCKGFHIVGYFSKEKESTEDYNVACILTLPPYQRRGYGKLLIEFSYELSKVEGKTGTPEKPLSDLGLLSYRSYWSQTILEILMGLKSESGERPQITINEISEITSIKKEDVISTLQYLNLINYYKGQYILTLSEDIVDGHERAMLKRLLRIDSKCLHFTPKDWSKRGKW
Description: Revised Acetyltransferase Biochemical Assay, KAT5. To be noted: 10 nM KAT5, 1 μM AcCoA, 100 nM histone H4, 90 min.

For assay [2], the target named is T5, MOF-KAT8 (Homo sapiens, UniProt Q9H7Z6).
T5 sequence (Q9H7Z6 177-447): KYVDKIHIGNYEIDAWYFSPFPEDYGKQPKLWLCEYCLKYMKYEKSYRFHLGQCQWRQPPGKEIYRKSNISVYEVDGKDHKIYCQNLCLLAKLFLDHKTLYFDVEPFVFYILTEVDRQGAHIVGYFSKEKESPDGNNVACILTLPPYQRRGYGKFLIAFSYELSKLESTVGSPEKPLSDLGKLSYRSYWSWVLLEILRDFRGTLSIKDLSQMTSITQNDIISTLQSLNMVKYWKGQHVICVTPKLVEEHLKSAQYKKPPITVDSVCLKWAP
The experiment in a line: Revised Acetyltransferase Biochemical Assay, KAT8.

Assay [3] concerns histone H3K23 acetylation (KATE mediated) in U2OS cells. Description: Histone H3 Lysine 23 Acetylation Biomarker Assay (U2OS). The format is cell-based. To be noted: Homo sapiens, 96 well, 24 hours incubation. Here is the method:
Compounds may be tested for their ability to inhibit acetylation of the histone H3K23 marker, which is KATE mediated, in the following assay:
The cell line U2OS was seeded at a density of 9,000 cells per well in 96 well optical quality tissue culture plates in RPMI medium and 10% foetal bovine serum, and allowed to adhere for 24 hours under standard culture conditions (37 degree Celsius, 5% CO2). At the end of this period the medium was aspirated. Compound dilutions prepared in DMSO were added to medium, with negative control wells reserved for treatment with DMSO only and 100% inhibition positive controls receiving a potent inhibitor compound (e.g. cas 2055397-28-7, benzoic acid, 3-fluoro-5-(2-pyridinyl)-, 2-[(2-fluorophenyl)sulfonyl]hydrazide) (Baell, J., Nguyen, H. N., Leaver, D. J., Cleary, B. L., Lagiakos, H. R., Sheikh, B. N., Thomas. T. J., Aryl sulfonohydrazides, WO2016198507A1, 2016) at 10 μM concentration and 200 μL transferred to the cells. After incubation for 24 hours, the cells were fixed with 3.7% formaldehyde in PBS for 20 minutes at room temperature, washed (5×5 minutes) with phosphate buffer saline containing 0.1% Tween 20 and blocked with Odyssey blocking buffer (LI-COR, Lincoln, Nebr.) containing 0.1% TritonX100. Anti-H3K23ac specific antibody (Abcam ab177275) in Odyssey blocking buffer containing 0.1% Tween 20 was added and incubated for 16 hours at 4 degree Celsius. After washing (as above), a secondary antibody labelled with Alexa647 dye (LifeTechnologies) and Hoechst 33342 (1 μg/mL, SigmaAldrich) were added for 1 hour incubation. Plates were washed as previously and read on a PerkinElmer Phenix high content imaging platform. Using a Columbus image analysis pipeline, individual nuclei were located by Hoechst 33342 stain and the acetylation level was calculated from the Alexa647-related intensity in the same area. The resulting mean intensity per cell was directly converted to percent inhibition relative to controls on the same plate and the data fitted against a four-parameter logistic model to determine the 50% inhibitory concentration (IC50).

In assay [4] the target is T5, MOF-KAT8. Description: Acetyltransferase biochemical assay (AlphaScreen), KAT8. To be noted: Table 4 (MOF-KAT8); 0.4 μM Acetyl coenzyme A, histone H4, 20 nM enzyme.
Assay [5] concerns the target T3, HBO-KAT7. The experiment in a line: Acetyltransferase biochemical assay (AlphaScreen), KAT7. To be noted: Table 3 (HBO-KAT7); 0.4 μM Acetyl coenzyme A, histone H3.1, 40 nM enzyme.
For assay [6], the system named is histone H3 Lysine 14 acetylation (HBO1 mediated) in U2OS cells. The experiment in a line: Histone H3 Lysine 14 Acetylation Biomarker Assay (384-well, U2OS). The format is cell-based. The following applies: Homo sapiens, serum free medium, 24 hours incubation. Here is the method:
Compounds may be tested for their ability to inhibit acetylation of the histone H3 Lysine 14 (which is HBO1 mediated) marker in the following assay:
The cell line U2OS was seeded at a density of 3,000 cells per well in 384-well optical quality tissue culture plates in RPMI medium supplemented with 10% foetal bovine serum and 10 mM Hepes. The cells were allowed to adhere for 24 hours under standard culture conditions (37 degree Celsius, 5% CO2). At the end of this period the cells were washed with serum free medium. Compound dilutions prepared in DMSO were added to the serum free medium, with negative control wells reserved for treatment with DMSO only and 100% inhibition positive controls receiving a potent inhibitor compound (e.g. (Z)-4-fluoro-N-((3-hydroxyphenyl)sulfonyl)-5-methyl-[1,1′-biphenyl]-3-carbohydrazonic acid) at 10 μM concentration. After incubation for 24 hours, the cells were fixed with 4% formaldehyde in PBS for 15 minutes at room temperature, washed with phosphate buffer saline and blocked with blocking buffer containing 0.2% TritonX100 and 2% BSA. Anti-H3K14ac specific antibody (Cell Signalling Technologies) in blocking buffer was added and incubated overnight at 4 degree Celsius. After washing, a secondary antibody labelled with AlexaFluor 488 dye (ThermoFisher) and Hoechst 33342 (1 μg/mL, Life Technologies) were added for 2 hours incubation at room temperature. Plates were washed and read on a
PerkinElmer Opera HCS high content imaging platform. Using a Columbus image analysis pipeline, individual nuclei were located by Hoechst 33342 stain and the acetylation level was calculated from the AlexaFluor 488-related intensity in the same area. The resulting mean intensity per cell was converted to percent inhibition relative to controls on the same plate and the data fitted against a four-parameter logistic model to determine the 50% inhibitory concentration (IC50).

Assay [7] deals with histone H2A.Z Lysine 7 acetylation (TIP60 mediated) in U2OS cells. Description: H2A.Z Lysine 7 Acetylation Biomarker Assay (384-well, U2OS). To be noted: Homo sapiens, serum free medium, 24 hours incubation. Type of assay: cell-based. The essentials: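 U2OS cells (3,000/well) were treated with compound for 24 h after a serum-free wash, then fixed. They were stained with anti-H2A.ZK7ac, an AlexaFluor 488 secondary and Hoechst. High-content imaging gave mean nuclear intensity per cell, converted to percent inhibition against on-plate controls, and IC50 came from a four-parameter logistic fit.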

T3 sequence (O95251 with tags, fused parts or gaps): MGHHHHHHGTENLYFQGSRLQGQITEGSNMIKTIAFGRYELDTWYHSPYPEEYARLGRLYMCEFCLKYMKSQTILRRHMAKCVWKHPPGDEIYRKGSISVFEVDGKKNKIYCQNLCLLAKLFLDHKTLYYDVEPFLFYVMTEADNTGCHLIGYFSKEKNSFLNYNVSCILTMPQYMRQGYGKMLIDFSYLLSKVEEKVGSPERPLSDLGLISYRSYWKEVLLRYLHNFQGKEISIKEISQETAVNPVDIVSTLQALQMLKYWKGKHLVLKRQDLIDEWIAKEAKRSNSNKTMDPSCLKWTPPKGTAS
T2 sequence (Q8WYB5 whole entry): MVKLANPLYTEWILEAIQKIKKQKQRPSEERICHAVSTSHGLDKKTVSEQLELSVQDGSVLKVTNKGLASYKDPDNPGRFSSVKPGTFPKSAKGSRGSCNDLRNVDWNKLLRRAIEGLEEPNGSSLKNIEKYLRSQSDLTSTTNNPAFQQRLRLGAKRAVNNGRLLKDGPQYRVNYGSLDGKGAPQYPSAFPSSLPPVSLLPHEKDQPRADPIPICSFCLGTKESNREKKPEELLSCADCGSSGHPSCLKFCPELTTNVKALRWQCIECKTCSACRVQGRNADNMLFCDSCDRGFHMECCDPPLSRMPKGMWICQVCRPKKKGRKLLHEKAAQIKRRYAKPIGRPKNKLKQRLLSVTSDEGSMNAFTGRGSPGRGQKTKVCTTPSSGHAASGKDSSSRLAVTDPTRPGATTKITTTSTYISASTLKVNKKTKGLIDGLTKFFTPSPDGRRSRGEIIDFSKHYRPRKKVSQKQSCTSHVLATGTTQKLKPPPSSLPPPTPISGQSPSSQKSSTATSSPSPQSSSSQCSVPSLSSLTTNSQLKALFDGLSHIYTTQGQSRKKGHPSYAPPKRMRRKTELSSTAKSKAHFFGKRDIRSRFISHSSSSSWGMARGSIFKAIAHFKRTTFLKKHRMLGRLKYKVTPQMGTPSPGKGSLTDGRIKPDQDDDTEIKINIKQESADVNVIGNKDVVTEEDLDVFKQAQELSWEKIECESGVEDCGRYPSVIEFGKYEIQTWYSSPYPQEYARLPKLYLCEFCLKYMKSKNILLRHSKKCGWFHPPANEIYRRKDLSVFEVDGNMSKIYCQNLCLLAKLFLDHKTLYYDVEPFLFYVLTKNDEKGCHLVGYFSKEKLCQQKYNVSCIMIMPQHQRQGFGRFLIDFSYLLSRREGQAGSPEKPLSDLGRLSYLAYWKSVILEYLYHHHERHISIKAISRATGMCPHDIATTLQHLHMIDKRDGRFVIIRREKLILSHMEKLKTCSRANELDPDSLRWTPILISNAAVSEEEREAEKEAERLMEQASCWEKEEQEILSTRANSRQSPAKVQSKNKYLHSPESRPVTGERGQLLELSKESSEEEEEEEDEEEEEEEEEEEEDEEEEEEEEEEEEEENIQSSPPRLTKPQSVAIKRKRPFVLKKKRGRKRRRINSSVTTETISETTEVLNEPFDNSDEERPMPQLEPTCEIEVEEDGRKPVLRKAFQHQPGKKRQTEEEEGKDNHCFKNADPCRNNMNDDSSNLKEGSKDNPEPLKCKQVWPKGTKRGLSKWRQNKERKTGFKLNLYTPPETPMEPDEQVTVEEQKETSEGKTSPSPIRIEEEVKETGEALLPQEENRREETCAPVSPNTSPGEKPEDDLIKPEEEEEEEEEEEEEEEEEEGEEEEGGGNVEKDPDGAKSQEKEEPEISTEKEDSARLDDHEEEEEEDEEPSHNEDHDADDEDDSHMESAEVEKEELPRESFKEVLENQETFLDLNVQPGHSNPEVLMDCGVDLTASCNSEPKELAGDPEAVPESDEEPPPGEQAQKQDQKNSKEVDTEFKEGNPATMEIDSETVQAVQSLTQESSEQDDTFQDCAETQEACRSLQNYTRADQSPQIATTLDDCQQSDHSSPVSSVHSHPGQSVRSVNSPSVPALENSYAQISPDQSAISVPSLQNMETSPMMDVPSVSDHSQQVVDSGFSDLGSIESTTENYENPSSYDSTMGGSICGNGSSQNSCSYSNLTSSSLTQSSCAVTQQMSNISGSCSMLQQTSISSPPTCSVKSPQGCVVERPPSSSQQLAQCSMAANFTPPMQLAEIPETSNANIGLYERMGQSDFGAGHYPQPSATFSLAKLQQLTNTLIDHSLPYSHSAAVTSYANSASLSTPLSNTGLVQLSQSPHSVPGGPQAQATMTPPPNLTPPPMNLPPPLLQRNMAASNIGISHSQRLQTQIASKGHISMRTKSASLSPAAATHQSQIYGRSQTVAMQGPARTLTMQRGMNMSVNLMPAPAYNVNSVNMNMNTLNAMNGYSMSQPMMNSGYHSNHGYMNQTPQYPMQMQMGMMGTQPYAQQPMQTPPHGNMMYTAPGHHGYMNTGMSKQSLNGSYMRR

Take `COc1cc(C)cc(C(CNC(=O)C2=Nc3ccc(Cl)cc3S(=O)(=O)N2)c2ncco2)c1` (centres unmarked) [Example 159, 7-chloro-N-(2-(3-methoxy-5-methylphenyl)-2-(oxazol-2-yl)ethyl)-2H-benzo[e][1,2,4]thiadiazine-3-carboxamide 1,1-dioxide]: the half-maximal inhibitory concentration (IC50) was determined as 371 nM against MOZ-KAT6A; 4.05 µM against QKF-KAT6B; 295 nM against HBO-KAT7 [1]; 3.2 µM against TIP60-KAT5; 16.3 µM against MOF-KAT8 [2]; 5.09 µM in [3].

Consider `O=C(NCC(F)(c1ccccc1)c1ncco1)C1=Nc2ccc(Cl)cc2S(=O)(=O)N1` (centres unmarked) [Example 175], for which the IC50 against MOF-KAT8 [4] came to 29.3 µM; against MOZ-KAT6A, 13 nM; against HBO-KAT7 [5], 162 nM; in assay [6], 1840 nM; against HBO-KAT7 [1], 478 nM; in assay [7], 11.9 µM. Moreover, the IC50 was determined as 0.311 µM against TIP60-KAT5, 30.2 µM against MOF-KAT8 [2] and 0.154 µM in assay [3].

On to `COc1cccc(C(CNC(=O)C2=Nc3ccc(Cl)cc3S(=O)(=O)N2)c2ncco2)c1` (centres unmarked) [Example 176, 7-chloro-N-(2-(3-methoxyphenyl)-2-(oxazol-2-yl)ethyl)-2H-benzo[e][1,2,4]thiadiazine-3-carboxamide 1,1-dioxide], for which the IC50 worked out at 92.9 µM against MOF-KAT8 [4]; 76 nM against MOZ-KAT6A; 207 nM on HBO-KAT7 [5]; 4430 nM in [6]; 869 nM against HBO-KAT7 [1]; 15.4 µM in [7]. The IC50 at TIP60-KAT5 turned out to be 5.11 µM; on MOF-KAT8 [2] it was 30.2 µM.

With `O=C(NCC(F)(c1ccccc1)c1ncco1)C1=Nc2ccc(I)cc2S(=O)(=O)N1` (centres unmarked) [Example 177], the half-inhibitory concentration (IC50) was 6.25 µM on MOF-KAT8 [4]; 4 nM on MOZ-KAT6A; 64 nM against HBO-KAT7 [5]; 1030 nM in assay [6]; 124 nM at HBO-KAT7 [1]; 1.18 µM in assay [7]. For the same molecule, the IC50 against TIP60-KAT5 was found to be 0.023 µM; on MOF-KAT8 [2] it was 8.21 µM; in assay [3], 0.195 µM.

Consider `O=C(NCC(c1ccccc1)c1n[nH]c(=O)o1)C1=Nc2ccc(I)cc2S(=O)(=O)N1` (centres unmarked) [Example 186], for which the 50% inhibitory concentration (IC50) is 71.5 µM on MOF-KAT8 [4]; 24 nM against MOZ-KAT6A; over 40000 nM in [6]; 1960 nM at HBO-KAT7 [1]; over 40 µM in assay [7]; 0.734 µM against TIP60-KAT5. In [3], this molecule came in with a 50% inhibitory concentration (IC50) of over 10 µM.

For `Cn1nc(-c2ccccc2CCNC(=O)C2=Nc3ccc(Cl)cc3S(=O)(=O)N2)oc1=O` [Example 193], the concentration for half-maximal inhibition (IC50) at MOZ-KAT6A is 493 nM; in assay [6], 31200 nM; at HBO-KAT7 [1] it was 1940 nM; in assay [7], over 40 µM; against TIP60-KAT5, 4.17 µM; in [3] it was 9.08 µM.

For the molecule `O=C(NCC1(c2ccccn2)CCCCC1)C1=Nc2ccc(Cl)cc2S(=O)(=O)N1` [Example 197], the half-maximal inhibitory concentration (IC50) stood at 290 nM on MOZ-KAT6A; 0.78 µM against QKF-KAT6B; 7530 nM against HBO-KAT7 [1]; 23.6 µM on TIP60-KAT5; 3.04 µM in [3].

As to `O=C(NCC1(c2ccccn2)CCCC1)C1=Nc2ccc(Cl)cc2S(=O)(=O)N1` [Example 198], the IC50 at MOZ-KAT6A was determined as 351 nM; against QKF-KAT6B it was 1.38 µM; against HBO-KAT7 [1], 8370 nM; at TIP60-KAT5 it was 42.3 µM; in assay [3], 5.2 µM.

On to `O=C(NCC(CO)C1CCCCC1)C1=Nc2ccc(Cl)cc2S(=O)(=O)N1` (centres unmarked) [Example 199], for which the IC50 on MOZ-KAT6A was determined as 838 nM; on QKF-KAT6B, 6.17 µM; against HBO-KAT7 [1] it was 6570 nM; against TIP60-KAT5 it was 15.6 µM; in assay [3], 10 µM.

Consider `O=C(NCCC1CCCCC1)C1=Nc2ccc(Cl)cc2S(=O)(=O)N1` [Example 202], for which the IC50 is 1040 nM at MOZ-KAT6A; over 125 µM against QKF-KAT6B; over 125000 nM at HBO-KAT7 [1]; over 125 µM against TIP60-KAT5; over 10 µM in assay [3].

Take `O=C(NCC(c1cccc(O)c1)c1ncco1)C1=Nc2ccc(Cl)cc2S(=O)(=O)N1` (centres unmarked) [Example 216, 7-Chloro-N-(2-(3-hydroxyphenyl)-2-(oxazol-2-yl)ethyl)-2H-benzo[e][1,2,4]thiadiazine-3-carboxamide 1,1-dioxide]: the IC50 came to 64.3 µM on MOF-KAT8 [4]; 28 nM against MOZ-KAT6A; 63 nM against HBO-KAT7 [5]; 14100 nM in assay [6]; 152 nM against HBO-KAT7 [1]; 15.9 µM in assay [7]. Besides, the half-maximal inhibitory concentration (IC50) against TIP60-KAT5 came to 0.506 µM; at MOF-KAT8 [2], 58.6 µM.

In the case of `Cc1cc(O)cc(C(CNC(=O)C2=Nc3ccc(I)cc3S(=O)(=O)N2)c2ncco2)c1` (centres unmarked) [Example 222, N-(2-(3-Hydroxy-5-methylphenyl)-2-(oxazol-2-yl)ethyl)-7-iodo-2H-benzo[e][1,2,4]thiadiazine-3-carboxamide 1,1-dioxide], the 50% inhibitory concentration (IC50) was 131 nM at MOZ-KAT6A; 437 nM in assay [6]; 23 nM on HBO-KAT7 [1]; 1.28 µM in assay [7]; 0.149 µM at TIP60-KAT5; 7.15 µM in assay [3].

`Cc1ccccc1C(CNC(=O)C1=Nc2ccc(I)cc2S(=O)(=O)N1)c1ncco1` (centres unmarked) [Example 237, 7-iodo-N-(2-(oxazol-2-yl)-2-(o-tolyl)ethyl)-2H-benzo[e][1,2,4]thiadiazine-3-carboxamide 1,1-dioxide]: the IC50 on MOF-KAT8 [4] is 6.35 µM; at MOZ-KAT6A, 10 nM; in assay [6] it was 498 nM; against HBO-KAT7 [1], 121 nM; in assay [7], 3.41 µM; against TIP60-KAT5, 0.163 µM. Further, on MOF-KAT8 [2], the IC50 was 15.3 µM.
